Measured values as given in PMC6332289, “Anti-Oxidant, Anti-Aging, and Anti-Melanogenic Properties of the Essential Oils from Two Varieties of Alpinia zerumbet” (Molecules, 2015).
≈ marks a conversion by molar mass, not a printed value.

Target: T1, Clostridium histolyticum collagenase (ChC)
T1 construct: gene colG; commercial collagenase from Sigma-Aldrich
Assay: FALGPA hydrolysis, absorbance at […] nm
Type: biochemical, Hathewaya histolytica
Settings: 50 mM tricine, 400 mM NaCl, 10 mM CaCl2, pH 7.5; 0.8 mM FALGPA; 15 min preincubation

Question: How did the IC50 turn out when `CC1(C)CC[C@]2(C(=O)O)CC[C@]3(C)C(=CC[C@@H]4[C@@]5(C)CC[C@H](O)C(C)(C)[C@@H]5CC[C@]43C)[C@@H]2C1` [oleanolic acid] was run?
Answer: 21 ± 0.2 µg/mL (≈ 46 µM)
